This passage reports LDH, DC50 and IC50 results from US8410152B2 (Max-Planck-Gesellschaft zur Forderung der Wissenschaften e. …, priority 2006, dated 2013).

For series [1], the system named is uninduced N2A cells. The class given is cell-based. Particulars: cell death as percent of LDH released into medium vs total LDH, compound 10 μM. Here is the method: Neurotoxicity assay: Neurotoxicity was assessed using an LDH (lactate dehydrogenase) assay kit (Roche, Mannheim, Germany) according to the manufacturer's specifications. In the viability assay the aggregation inhibitor compound was added at a final concentration of 10 μM to uninduced N2A cells. The activity of LDH was measured spectrophotometrically at 492 nm. Cell death was calculated as percent of LDH released into medium, compared to total LDH obtained after total cell lysis.
On the technique in general: LDH leaks from cells whose membrane has failed.

Series [2] addresses tau construct K19 (Homo sapiens, UniProt P10636). The experiment in a line: Thioflavine S (ThS) assay for aggregation of tau. Particulars: 10 μM tau construct K19, 2.5 μM heparin, ThS fluorescence; for DC50: read-out: DC50; for IC50: over night at 37° C., read-out: ID50 (the source's name). The class given is biochemical. How it is done:
Thioflavine S (ThS) Assay for aggregation of tau: 10 μM of the tau construct K19 were incubated with compounds in a concentration range from 1 nM up to 200 μM in the presence of 2.5 μM heparin in 50 mM NH4Ac buffer over night at 37° C. After addition of 20 μM ThS the signal was measured at 521 nm (emission) at an excitation wavelength of 440 nm. The results of this assay are presented in the IC50 column and DC50 column of Table 1 below.

Bounds are passed on as bounds.

Sequence of tau construct K19 (P10636 with tags, fused parts or gaps isoform P10636-2 limits assumed): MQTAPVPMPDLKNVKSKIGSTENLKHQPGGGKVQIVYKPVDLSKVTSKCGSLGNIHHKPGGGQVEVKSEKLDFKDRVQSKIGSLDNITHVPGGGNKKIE

`O=C(NNc1nc(-c2ccc(F)cc2)cs1)c1ccc(Cl)cc1` [Comp. 31, 4-chloro-N′-[4-(4-fluorophenyl)-1,3-thiazol-2-yl]benzohydrazide]: in series [1], the LDH worked out at 56.1%. In series [2], the DC50 was more than 200 µM and the IC50 came to 184 µM.
On to `COc1cccc(-c2csc(NNC(=O)c3ccc(Cl)cc3)n2)c1` [Comp. 27, 4-chloro-N′-[4-(3-methoxyphenyl)-1,3-thiazol-2-yl]benzohydrazide], for which the LDH in series [1] came out at 42.1%. In series [2], the DC50 was more than 200 µM and the IC50 stood at 59.2 µM.
For `O=C(NNc1nc(-c2ccc([N+](=O)[O-])cc2)cs1)c1ccc2ccccc2c1` [Comp. 20, N′-(4-(4-Nitrophenyl)thiazol-2-yl)-2-naphthohydrazide], in series [1], the LDH amounted to 18.7%. In series [2], the DC50 was determined as 0.4 µM and the IC50 was determined as 13.6 µM.
The like results for `O=C(NNc1nc(-c2ccccc2)cs1)c1ccccc1F` [Comp. 41, 2-fluoro-N′-(4-phenyl-1,3-thiazol-2-yl)benzohydrazide] were, in that order, 6.5%, 127 µM and more than 200 µM.
The matching figures for `O=C(NNc1nc(-c2ccc([N+](=O)[O-])cc2)cs1)c1ccc(F)cc1` [Comp. 18, 4-fluoro-N′-[4-(4-nitrophenyl)-1,3-thiazol-2-yl]benzohydrazide]: 46.9%, 0.9 µM and 6.9 µM.
The like results for `O=C(NNc1nc(-c2ccccc2)cs1)c1ccc2ccccc2c1` [Comp. 42, N′-(4-phenyl-1,3-thiazol-2-yl)-2-naphthohydrazide] were, in that order, 8.2%, 16.4 µM and more than 200 µM.
For `O=C(NNc1nc(-c2cc3ccccc3oc2=O)cs1)c1ccc(-c2ccccc2)cc1` [Comp. 47, N′-[4-(2-oxo-2H-chromen-3-yl)-1,3-thiazol-2-yl]-1,1′-biphenyl-4-carbohydrazide], the LDH in series [1] stood at 44.7%. In addition, in series [2], the DC50 is more than 200 µM and the IC50 is more than 200 µM.
With `O=C(NNc1nc(-c2ccc(Br)cc2)cs1)c1ccc(-c2ccccc2)cc1` [Comp. 39, N′-[4-(4-bromophenyl)-1,3-thiazol-2-yl]-1,1′-biphenyl-4-carbohydrazide], the LDH in series [1] worked out at 4.9%. For the same compound, in series [2], the DC50 was more than 200 µM and the IC50 is more than 200 µM.
Consider `Cc1sc(NNC(=O)c2ccc(F)cc2)nc1-c1ccccc1` [Comp. 32, 4-fluoro-N′-(5-methyl-4-phenyl-1,3-thiazol-2-yl)benzohydrazide], for which the LDH in series [1] came to 18.4%. For the same compound, in series [2], the DC50 is more than 200 µM and the IC50 worked out at 195 µM.
The like results for `O=C(NNc1nc(-c2ccc(N3CCCC3)cc2)cs1)c1ccc(F)nc1` [Comp. 75, 6-fluoro-N′-[4-(4-pyrrolidin-1-ylphenyl)-1,3-thiazol-2-yl]nicotinohydrazide] were, in that order, 12.2%, 44.6 µM and 42.1 µM.
The matching figures for `O=C(CCc1ccccc1)NNc1nc(-c2ccc(Br)cc2)cs1` [Comp. 36, N′-[4-(4-bromophenyl)-1,3-thiazol-2-yl]-3-phenylpropanohydrazide]: 3.3%, more than 200 µM and more than 200 µM.
The like results for `O=C(NNc1nc(-c2cc3ccccc3oc2=O)cs1)c1ccc2ccccc2c1` [Comp. 4, N′-(4-(2-Oxo-2H-chromen-3-yl)thiazol-2-yl)-2-naphthohydrazide] were, in that order, 15.7%, 88 µM and more than 200 µM.
On to `Cc1nc(NNC(=O)c2ccc(-c3ccccc3)cc2)sc1-c1ccc(Br)cc1` [Comp. 64, N′-[5-(4-bromophenyl)-4-methyl-1,3-thiazol-2-yl]-1,1′-biphenyl-4-carbohydrazide], for which, in series [1], the LDH was found to be 8.9%. Further, the IC50 in series [2] is more than 200 µM.
Turning to `O=C(NNc1nc(-c2ccc(Br)cc2)cs1)Nc1ccccc1` [Comp. 30, 2-[4-(4-bromophenyl)-1,3-thiazol-2-yl]-N-phenylhydrazinecarboxamide], in series [1], the LDH amounted to 6.4%. Besides, in series [2], the DC50 was more than 200 µM and the IC50 stood at 146 µM.
For `O=C(NNc1nc(-c2ccc(Br)cc2)cs1)c1ccc2ccccc2c1` [Comp. 3, N′-(4-(4-Bromophenyl)thiazol-2-yl)-2-naphthohydrazide], the LDH in series [1] turned out to be 4.2%. For the same compound, in series [2], the DC50 was determined as 169 µM and the IC50 is more than 200 µM.
The matching figures for `Cc1sc(NNC(=O)c2ccc(Cl)cc2)nc1-c1cccc([N+](=O)[O-])c1` [Comp. 19, 4-chloro-N′-[5-methyl-4-(3-nitrophenyl)-1,3-thiazol-2-yl]benzohydrazide]: 47.4%, 10.8 µM and 7.7 µM.
The like results for `O=C(NNc1nc(-c2ccccc2)cs1)c1ccc(Cl)cc1` were, in that order, 34.3%, more than 200 µM and more than 200 µM.
In the case of `O=C(NNc1nc(-c2ccc(Br)cc2)cs1)c1ccncc1` [Comp. 21, N′-[4-(4-bromophenyl)-1,3-thiazol-2-yl]isonicotinohydrazide], the LDH in series [1] is given as 1.5%. Also, in series [2], the DC50 turned out to be 20.2 µM and the IC50 came out at 18 µM.
The like results for `O=C(NNc1nc(-c2ccc(Br)cc2)cs1)c1ccc(F)cc1` [Comp. 40, N′-[4-(4-bromophenyl)-1,3-thiazol-2-yl]-4-fluorobenzohydrazide] were, in that order, 4.9%, more than 200 µM and more than 200 µM.
The matching figures for `O=C(NNc1nc(-c2ccc(N3CCCC3)cc2)cs1)c1ccc2ccccc2c1` [Comp. 16, N′-[4-(4-pyrrolidin-1-ylphenyl)-1,3-thiazol-2-yl]-2-naphthohydrazide]: 15.3%, 1.5 µM and 5.8 µM.
The like results for `O=C(NNc1nc(-c2ccc([N+](=O)[O-])cc2)cs1)c1cccnc1` [Comp. 11, N′-[4-(4-nitrophenyl)-1,3-thiazol-2-yl]nicotinohydrazide] were, in that order, 12.9%, 0.7 µM and 3.1 µM.
Turning to `O=C(NNc1nc(-c2ccccc2)cs1)c1ccc(F)cc1` [Comp. 24, 4-fluoro-N′-(4-phenyl-1,3-thiazol-2-yl)benzohydrazide], the LDH in series [1] was determined as 5.5%. Further, in series [2], the DC50 is 16.5 µM and the IC50 stood at 33.6 µM.
As to `O=C(NNc1nc(-c2cccc([N+](=O)[O-])c2)cs1)c1ccccc1Cl` [Comp. 25, 2-chloro-N′-[4-(3-nitrophenyl)-1,3-thiazol-2-yl]benzohydrazide], the LDH in series [1] came out at 43.0%. Moreover, in series [2], the DC50 is more than 200 µM and the IC50 was found to be 35.5 µM.
The like results for `O=C(NNc1nc(-c2ccc(Br)cc2)cs1)c1ccc2[nH]cnc2c1` [Comp. 43, N′-[4-(4-bromophenyl)-1,3-thiazol-2-yl]-1H-benzimidazole-5-carbohydrazide] were, in that order, 11.5%, 31.7 µM and more than 200 µM.
As for `O=C(NNc1nc(-c2ccccc2)cs1)c1ccc(F)cc1` [Comp. 34, 4-fluoro-N′-(4-phenyl-1,3-thiazol-2-yl)benzohydrazide], in series [1], the LDH worked out at 2.6%. In addition, in series [2], the DC50 is more than 200 µM and the IC50 is more than 200 µM.
Consider `COc1cccc(-c2csc(NNC(=O)c3cccs3)n2)c1` [Comp. 23, N′-[4-(3-methoxyphenyl)-1,3-thiazol-2-yl]thiophene-2-carbohydrazide], for which the LDH in series [1] amounted to 25.3%. Further, in series [2], the DC50 is more than 200 µM and the IC50 was 28.3 µM.
The like results for `O=C(NNc1nc(-c2cc3ccccc3oc2=O)cs1)c1cccnc1` [Comp. 2, N′-(4-(2-Oxo-2H-chromen-3-yl)thiazol-2-yl)nicotinohydrazide] were, in that order, 15.4%, 11.1 µM and 23.2 µM.
